This note sets out measurements from patent publication US7510701B2, “Aerosol-based insecticide compositions and methods of using the same” (Waterbury Companies, Inc., priority 2001, dated 2009).

The test system of this assay is termites. Kind of assay: Repellency to termites (termites moving through the treated area). As to conditions: termites do not detect the active ingredient in the treated area and readily move through it, picking up a lethal dose. Type of assay: in vivo. The text has this:
[…], and in particular deltamethrin, an α-cyano-pyrethroid, are the preferred active ingredients of the insecticide formulation of this invention and provides the formulation with its insecticidal activity. The International Union of Pure and Applied Chemistry name for Deltamethrin is (S)-α-cyano-3-phenoxybenzyl (1R)-cis-3-(2,2-dibromovinyl)-2,2-dimethylcyclopropane-carboxylate. Deltamethrin is produced by AgrEvo Environmental Health of 95 Chestnut Ridge Road, Montvale, N.J., 07645. The concentration of deltamethrin in the insecticide formulation may range from 0.01 to 2% by weight of the insecticide without propellant, but is preferably from 0.01 to 0.5% by weight of the insecticide without propellant and most preferably from 0.10 to 0.30% by weight of the insecticide without the propellant.

As for `CC1(C)[C@H](C(=O)O[C@H](C#N)c2cccc(Oc3ccccc3)c2)[C@@H]1C=C(Br)Br` [deltamethrin, (S)-α-cyano-3-phenoxybenzyl (1R)-cis-3-(2,2-dibromovinyl)-2,2-dimethylcyclopropane-carboxylate], the Repellency to termites entry is recorded as “non-repellant to termites”.
